Data published in publication PMC6273868, “High-Resolution α-Glucosidase Inhibition Profiling Combined with HPLC-HRMS-SPE-NMR for Identification of Antidiabetic Compounds in Eremanthus crotonoides (Asteraceae)” (Molecules, 2016).
Entries after “also recorded” stand apart in the source; their conditions may differ.

Assays:
[1] = molecular target: yeast α-glucosidase; assay: α-glucosidase inhibition assay, dilution series for IC50 determination (PNPG substrate); type: biochemical, Saccharomyces cerevisiae; conditions: for IC50: isolated compounds, means ± SD of triplicate experiments
Procedure: (§1) Methanol and ethyl acetate used for extraction were purchased from Tedia (Fairfield, OH, USA). Formic acid was obtained from Merck (Darmstadt, Germany) and water was prepared by a deionization and 0.22-µm membrane filtration system (Milipore, Billerica, MA, USA).
(§2) Microfractionation was performed with an Agilent 1200 series instrument (Santa Clara, CA, USA) consisting of a G1316A quartenary pump, a G1322A degasser, a G1316A thermostatted column compartment, a G1315C photodiode-array detector, a G1364C fraction collector, and a G1367C high-performance auto sampler, controlled by Agilent ChemStation ver. B.03.02 software. The columns used were a Phenomenex C18(2) Luna (150 mm × 4.6 mm, 3 μm particle size, 100 Å pore size) and a Phenomenex PFP Kinetex (150 mm × 4.6 mm, 2.6 μm particle size, 100 Å pore size). For fractionation of the crude defatted ethyl acetate extract of E. crotonoides (injection: 4 μL; concentration: 100 mg/mL) the temperature was maintained at 40 °C and the flow rate at 0.5 mL/min. The solvents were a binary gradient mixture of water–acetonitrile (95:5 v/v) as eluent A and acetonitrile–water (95:5 v/v) as eluent B, both acidified with 0.1% formic acid. The following elution profile was used: 0 min, 10% B; 35 min, 26% B; 50 min, 35% B; 60 min, 40% B; 90 min, 100% B, and the eluate from 3 to 78 min was fractionated into four 96-well microplates, leading to a resolution of 4.7 data points per min. For fractionation of Fr.2 (injection: 2 μL; concentration: 33 mg/mL) the same conditions as described above were used, but with methanol and the PFP column instead of acetonitrile and the C18 column. The eluate from 8 to 30 min was fractionated into one 96-well microplate (resolution: 4.0 data points per min) using the following gradient: 0 min, 50% B; 3 min, 50% B; 34 min, 59% B; 35 min 100% B; 38 min, 100% B. The collected fractions were evaporated to dryness using a Savant SPD121P speed vacuum concentrator coupled with a RVT400 refrigerated vapor trap and an OFP-400 oil free pump (Holbrook, NY, USA). The α-glucosidase inhibitiory activity of the fractions was determined according to the previously described procedure. Briefly, the content of each well was dissolved in 100 μL of 0.1 M phosphate buffer containing 10% of DMSO and added 80 μL of the α-glucosidase solution. After incubation at 28 °C for 10 min the reaction was initiated by addition of 20 μL of PNPG (10 mM in phosphate buffer) (final volume = 200 μL and final DMSO = 5%). The cleavage product of PNPG was monitored at 405 nm for 35 min using a Multiskan FC microplate photometer (Thermo Scientific, Waltham, MA, USA) and the percentage enzyme inhibition was calculated. The α-glucosidase inhibition of each well was plotted at their respective retention times underneath the HPLC chromatogram to obtain a high-resolution biochromatogram.
Preparative-scale fractionation was performed using an Agilent 1100 series instrument equipped with a multiple wavelength detector, an autosampler and two preparative-scale solvent delivery pumps. The column used was a Phenomenex C18(2) Luna (250 mm × 21.2 mm, 5 μm particle size, 100 Å pore size) and the gradient method was as follows: 0 min, 20% B; 27 min, 35% B; 37 min, 40% B; 40 min, 100% B; 46 min, 100% B; 47 min, 20% B; 52 min, 20% B using a binary mixture of water–acetonitrile (95:5 v/v) as eluent A and acetonitrile–water (95:5 v/v) as eluent B, both acidified with 0.1% formic acid.

[2] = system: α-glucosidase; assay: High-resolution α-glucosidase inhibition profiling (biochromatogram) of HPLC microfractions; type: biochemical, Saccharomyces cerevisiae; set-up: α-glucosidase inhibitory activity of peak in biochromatogram / α-glucosidase inhibitory activity, direct readout from the biochromatogram: concentration or dose not given beside the values; conditions: for α-glucosidase inhibitory activity, direct readout from the biochromatogram: biochromatogram of crude defatted extract; for α-glucosidase inhibitory activity, direct readout from the biochromatogram / α-glucosidase inhibitory activity of peak in biochromatogram: relative inhibition, quantity unknown; for α-glucosidase inhibitory activity of peak in biochromatogram: microfractionation of fraction Fr.2 on PFP column; for α-glucosidase inhibitory activity as seen in the biochromatogram of E. crotonoides extract (in words): crude defatted ethyl acetate extract, C18 column
Procedure: Thus, 0.4 mg of the extract of E. crotonoides was subjected to analytical-scale reversed-phase HPLC, and the eluate in the retention time range from 3.0 to 78.0 min was fractionated into four 96-well microplates, yielding a resolution of 4.7 data points/min (the first column of each microplate was reserved for blanks and controls). This was followed by evaporation of the HPLC eluate from all wells, reconstitution in buffer containing 10% DMSO, and assessment of the α-glucosidase inhibitory activity of all wells (final concentration of DMSO during assay = 5%). The inhibitory activities (calculated as percentage inhibition) were plotted against the retention time from the microfractionation to give the high-resolution α-glucosidase inhibition profile (biochromatogram) shown in Figure 1. The HPLC chromatogram at 254 nm is shown with the blue line (top) and the high-resolution α-glucosidase inhibition profile shown with the red line at the bottom. The high resolution of the biochromatogram allows direct correlation of HPLC peaks and peaks in the biochromatogram—thereby pinpointing peaks corresponding to compounds with α-glucosidase inhibitory activity.
as §1
as §2, with “The α-glucosidase inhibition of each well was plotted at their respective retention times underneath the HPLC chromatogram to obtain a high-resolution biochromatogram.” left out

[3] = molecular target: α-glucosidase; set-up: method as in PMID 25172103; conditions: known as a weak inhibitor; cited from earlier work

SMILES | IC50 [1] [µM] | α-glucosidase inhibitory activity of peak in biochromatogram [2] [%] | α-glucosidase inhibitory activity as seen in the biochromatogram of E. crotonoides extract (in words) [2] | further results
CCCCOC(=O)[C@]1(O)C[C@@H](O)[C@@H](OC(=O)/C=C/c2ccc(O)c(O)c2)[C@H](OC(=O)/C=C/c2ccc(O)c(O)c2)C1 [Compound 29, 4,5-di-O-caffeoylquinic acid n-butyl ester] | 5.2 ± 0.3 | – | – | α-glucosidase inhibitory activity, direct readout from the biochromatogram [2]: 57%
COc1c(-c2ccc(O)c(O)c2)oc2cc(O)cc(O)c2c1=O [Compound 20, quercetin 3-methyl ether] | 20.4 ± 1.3 | 70 | – | –
O=C(/C=C/c1ccc(O)c(O)c1)OC[C@H]1O[C@@H](Oc2c(-c3ccc(O)c(O)c3)oc3cc(O)cc(O)c3c2=O)[C@H](O)[C@@H](O)[C@@H]1O [Compound 12, quercetin-3-O-(6″-(E)-O-caffeoyl)-β-D-glucoside] | – | – | minor | –
O=c1cc(-c2ccc(O)c(O)c2)oc2cc(O)cc(O)c12 [Compound 19, luteolin] | 59.6 ± 1.32 | 32 | – | –
O=C(/C=C/c1ccc(O)c(O)c1)O[C@H]1[C@H](O)C[C@](O)(C(=O)O)C[C@H]1OC(=O)/C=C/c1ccc(O)c(O)c1 [Compound 8, 3,4-di-O-caffeoylquinic acid] | – | – | no or very low | –
O=C(/C=C/c1ccc(O)c(O)c1)O[C@@H]1C[C@](O)(C(=O)O)C[C@@H](OC(=O)/C=C/c2ccc(O)c(O)c2)[C@H]1O [Compound 9, 3,5-di-O-caffeoylquinic acid] | – | – | no or very low | –
O=C(/C=C/c1ccc(O)cc1)OC[C@H]1O[C@@H](Oc2c(-c3ccc(O)cc3)oc3cc(O)cc(O)c3c2=O)[C@H](O)[C@@H](O)[C@@H]1O [Compound 17, trans-tiliroside] | > 210 | 23 | – | Inhibition at 210 μM ([1]; 210 μM): 4.5%
CCCCOC(=O)[C@]1(O)C[C@@H](OC(=O)/C=C/c2ccc(O)c(O)c2)[C@@H](O)[C@H](OC(=O)/C=C/c2ccc(O)c(O)c2)C1 [Compound 26, 3,5-di-O-caffeoylquinic acid n-butyl ester] | 5.93 ± 0.12 | – | – | α-glucosidase inhibitory activity, direct readout from the biochromatogram [2]: 92%
O=c1c(O)c(-c2ccc(O)c(O)c2)oc2cc(O)cc(O)c12 [Compound 16, quercetin] | – | 82 | – | –
O=C(/C=C/c1ccc(O)c(O)c1)O[C@@H]1[C@H](O)C[C@@](O)(C(=O)O)C[C@H]1OC(=O)/C=C/c1ccc(O)c(O)c1 [Compound 11, 4,5-di-O-caffeoylquinic acid] | – | – | no or very low; also recorded: minor | IC50 [3]: > 100 µM
